The results in this text go back to US20100216761A1, “NOVEL AZETIDINONES USEFUL AS INHIBITORS OF ELASTASE” (priority 2007, published 2010).

This assay deals with T1, Human Leukocyte Elastase (HLE) (Homo sapiens, UniProt P08246).
T1 construct: The PMN lysates were prepared by isolating human neutrophils from whole blood; from tissue; host or cells: human neutrophils (PMN) isolated from whole blood, lysed by sonication in PBS
T1 sequence (P08246 30-267): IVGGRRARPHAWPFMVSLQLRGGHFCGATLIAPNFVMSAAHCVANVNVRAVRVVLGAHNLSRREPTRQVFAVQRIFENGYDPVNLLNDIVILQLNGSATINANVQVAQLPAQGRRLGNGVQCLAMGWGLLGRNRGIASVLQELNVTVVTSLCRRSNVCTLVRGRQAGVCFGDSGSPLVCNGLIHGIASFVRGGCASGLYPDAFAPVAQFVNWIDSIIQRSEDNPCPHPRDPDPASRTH
In words: HLE time-dependent reactivation (off-rate) assay. In kind it is biochemical. The following applies: head-to-head with Examples 1 and 3. How it is done: An important and desirable aspect of these mechanism-based HLE inhibitors is also the extent to which the enzyme remains inactivated or, in other words, the rate at which the modified inhibitor comes off the enzyme after the inactivation event has occurred and which then gives back the active HLE enzyme (see Note 2c and 4). This property was assessed in a time-dependent reactivation assay and the results were calculated as a first-order rate constant expressed as their half-lives in hours (t1/2). […] Under head-to-head conditions (n=2) with Examples 1 and 3, the off-rate for the comparator Compound #290 of U.S. Pat. No. 5,591,737 was determined to be 7.1 hrs, or about 2.5-2.6 times as fast.
Elastase was incubated with 100-fold molar excess of inhibitor in TES buffer (0.045M TES, 0.45M NaCl, pH 7.5, 0.1% BSA) at room temperature for 60 minutes. After the incubation was complete, the samples were loaded onto prepared columns (Micro BioSpin Chromatography Columns-Bio-Gel P-6 Columns Bio-Rad Cat# 732-6221; prepared as directed by the manufacturer). […] At specific time points, the filtrate was monitored for elastase activity by adding the filtrate to 1 mM substrate (MeoSucc-AAPV-pNA; Elastin Products Cat# FH237) in TES buffer (0.045M TES, 0.45M NaCl, pH 7.5) and measuring the absorbance at 410 nm. The absorbance was monitored every 10 seconds for 5 minutes. […]

For `CCC[C@@H](NC(=O)N1C(=O)C(CC)(CC)[C@@H]1Oc1ccc(C(=O)N(C)CCN(C)C)cc1)c1ccc(OC)cc1` [Compound #290, reference compound], the “off-rate relative to Examples 1 and 3 (times as fast)” value was 2.5-2.6 times.
